Assay [1] relates to human renal cancer 786-O transplantation. The assay is described as follows: Effect on tumor weight of human renal cancer 786-O transplantation nude mice (Comparative Experimental Example 1). In kind it is in vivo. Conditions: QD × 14 days, sorafenib as p-toluenesulfonate, FD-1210005 free form. An excerpt:
Comparative Experimental Example 1
The well grown 786-O solid tumor was cut into a mass of an average volume of about 1 mm^3 under aseptic conditions, and was used to inoculate nude mouse at axillary cavity of right forelimb subcutaneously via a trocar. The tumor growth state was observed regularly until the tumor grew into a volume of 250˜550 mm^3.
Animals with tumors of a too large or too small volume and an irregular shape were discarded. Tumor-bearing mice with a tumor volume of 250˜550 mm^3 in a good state were selected, 48 mice in total, and were divided into 6 groups, which were 1 solvent control group, 3 positive control groups, and 2 test sample groups. Both the positive control group and the test sample group were administered intragastrically once a day; the solvent control group was administered with 12.5% ethanol & 12.5% water solution of polyoxyethylene castor oil once a day; intragastrical volume was 10 mL/kg.
(§1) In the period of administration, tumor diameter was measured twice every week, tumor volume was calculated, and animal body weight was recorded. Animal state was observed when administered, and abnormal state was recorded.
Animal was sacrificed with CO2, and tumor was peeled off, weighed, and photographed. Animal was subjected to gross anatomy, and organs were observed by eyes to find if they were normal or not.
(§2) Observation Indexes: Tumor weight inhibiting rate (IR)=(WC−WT)/WC
Wherein WC and WT represented the average tumor weight of solvent control group and the average tumor weight of drug administration group, respectively.
Experimental data was subjected to calculation and relevant statistic processing by Microsoft Office Excel 2003 software. Unless otherwise specified, data was represented as Mean±Standard Error (Mean±S.E), and t-test is used in the comparison between two groups.

Assay [2] deals with human colon cancer HCT-116 transplantation. The assay is described as follows: Effect on tumor weight of human colon cancer HCT-116 transplantation nude mice (Comparative Experiment Example 2). Particulars: QD × 17 day, sorafenib as p-toluenesulfonate, FD-1210005 free form. In kind it is in vivo.
From the text: Comparative Experiment Example 2
Under aseptic conditions, the well grown human HCT-116 cell suspension in logarithmic growth phase was used to inoculate nude mouse at axillary cavity of right forelimb subcutaneously via an injector. The tumor growth state was observed regularly until the tumor grew to a volume of 100˜300 mm^3.
48 Tumor-bearing mice with a tumor volume of 100˜300 mm^3 were selected and divided into 6 groups, which were 1 solvent control group, 3 positive control groups, and 2 test sample groups. Both the positive control group and the test sample group were administered intragastrically once a day; the solvent control group was administered with 12.5% ethanol & 12.5% water solution of polyoxyethylene castor oil once a day; intragastrical volume was 10 mL/kg.
as §1
Animal was sacrificed with CO2, and tumor mass was peeled off, weighed, and photographed. After photographed, each tumor mass was cut into two parts, wherein one was stored in 4% paraformaldehyde, and the other was packaged into a freezing tube, and frozen in liquid nitrogen. Animal was subjected to gross anatomy, and organs were observed by eyes to find if they were normal or not.
as §2
wherein WC and WT represented the average tumor weight of solvent control group and the average tumor weight of drug administration group, respectively.
Experimental data was subjected to calculation and relevant statistic processing by Microsoft Office Excel 2003 software. Unless otherwise specified, data was represented as Mean±Standard Error (Mean±S.E.), and t-test is used in the comparison between two groups.

The next assay has as its system HCT116 xenograft. The assay can be described thus: Tumor-inhibiting effect on HCT116 xenograft tumor-bearing mice (Experimental Example 5). Particulars: QD × 14 day, free form; for TGI: from tumor weight. In kind it is in vivo, Balb/c nude mice. Here is the method:
HCT116 cells were cultured in McCoy's 5a culture medium containing inactivated 10% fetal bovine serum, 100 Um′ penicillin and 100 μg/ml streptomycin as well as 2 mM glutamine in an incubator at 37° C., 5% CO2. During cell culture, the initial concentration was 5×10^5 cells/ml, and the cells were separated into other bottles every 3 to 4 days when the cells reached a cell density of 100%. The tumor cells in logarithmic growth phase were used in tumor inoculation in vivo.
Balb/c nude mice was inoculated subcutaneously at right lateral thorax with HCT116 tumor cells re-suspended in PBS at 1.0×10^7 cells/0.1 ml. When the tumor grew into a volume of 800 mm^3, the animal was sacrificed and under aseptic conditions, tumor was peeled off. The well grown tumor tissues were cut into tumor mass with a size of 2×2×2 mm^3, and then were used to inoculate animal at right lateral thorax subcutaneously. 60 animals were inoculated. When the tumor grew into a volume of about 110 mm^3, the mice were grouped and administered, 5 groups in total, 8 mice per group.
The volume of tumor was measured by using Vernier caliper twice a week. The long diameter and short diameter of tumor were measured. The volume was calculated by the formula: volume=0.5× long diameter×short diameter^2. After the final measurement, the animal was sacrificed and the tumor was peeled off and weighed. Based on the tumor weight, tumor growth-inhibiting rate (TGI) was calculated. […] When the assay was finished, the experimental animal was subjected to euthanasia.

Assay [3] relates to 786-O humanized renal clear cell xenograft. The assay is described as follows: Tumor-inhibiting effect on 786-O xenograft tumor-bearing mice (Experimental Example 4). In kind it is in vivo, SCID-Beige nude mice. Conditions: QD × 14 days, free form; for TGI: from tumor weight. Here is the method: 786-O cells were cultured in RPMI-1640 culture medium containing inactivated 10% fetal bovine serum, 100 Um′ penicillin and 100 μg/ml streptomycin as well as 2 mM glutamine in an incubator at 37° C., 5% CO2. During cell culture, the initial concentration was 5×10^5 cells/ml, and the cells were separated into other bottles every 3 to 4 days when the cells reached a cell density of 100%. The tumor cells in logarithmic growth phase were used in tumor inoculation in vivo.
Female SCID-Beige nude mice (SPF grade) was inoculated subcutaneously at right lateral thorax with 786-O tumor cells re-suspended in PBS at 8×10^6 cells/0.1 ml. When the tumor grew into a volume of 800 mm^3, under aseptic conditions, tumor was peeled off. The well grown tumor tissues were cut into tumor mass with a size of 2×2×2 mm^3, and then were used to inoculate animal subcutaneously. When the tumor grew to a volume of about 100 mm^3, the mice were grouped and administered, 5 groups in total, 8 mice per group.
The volume of tumor was measure by using Vernier caliper twice a week. The long diameter and short diameter of tumor were measured. The volume was calculated by the formula: volume=0.5×long diameter×short diameter^2. After the final measurement, the animal was sacrificed and the tumor was peeled off and weighed. Based on the tumor weight of each group, tumor growth-inhibiting rate (TGI) was calculated. […] The data was effectiveness when TGI≧60% and p<0.05 by statistical analysis.

Consider `CNC(=O)c1cc(Oc2ccc(NC(=O)Nc3ccc(Cl)c(C(F)(F)F)c3)cc2)ccn1` [Comparative example 1, Sorafenib, reference compound], for which the “Tumor weight Mean ± S.E” value amounted to 0.5239 ± 0.1038 g in assay [1] (20 mg/kg po), 0.4407 ± 0.0581 g in assay [1] (60 mg/kg po), 0.5628 ± 0.0617 g in assay [2] (20 mg/kg Ig) and 0.4409 ± 0.0857 g in assay [2] (60 mg/kg Ig). Moreover, the Tumor-inhibiting rate in assay [1] (20 mg/kg po) was 44.01%; in assay [1] (60 mg/kg po) it was 52.89%; in assay [2] (20 mg/kg Ig) it was 43.28%; in assay [2] (60 mg/kg Ig), 55.57%.

As usually defined, the TGI is the reduction of tumour growth relative to the control group. A high value points to much slowing of growth. Consider `Cn1cc(-c2nccc(Oc3ccc(NC(=O)Nc4ccc(Cl)c(C(F)(F)F)c4)cc3)c2Cl)cn1` [Example 2, 1-(4-chloro-3-(trifluoromethyl)phenyl)-3-(4-(3-chloro-2-(1-methyl-pyrazol-4-yl)-pyridin-4-yl-oxy)phenyl)urea], for which the entries for the “Tumor weight (D27) Mean ± S.E” value in the assay with HCT116 xenograft (10 mg/kg po), in the assay on HCT116 xenograft (20 mg/kg po) and in the assay on HCT116 xenograft (40 mg/kg po) were 0.153 ± 0.078 g, 0.104 ± 0.035 g and 0.077 ± 0.043 g, respectively. For the same compound, the TGI in the assay on HCT116 xenograft (10 mg/kg po) was found to be 84.1%; with HCT116 xenograft (20 mg/kg po), 89.1%; in the assay with HCT116 xenograft (40 mg/kg po), 92%; in the assay with HCT116 xenograft (40 mg/kg po, listed as FD-2013018), 92.0%; in assay [3] (10 mg/kg po) it was 82%; in assay [3] (20 mg/kg po), 85%. In addition, the TGI in assay [3] (40 mg/kg po) was found to be 92%. The “Tumor weight Mean ± S.E” value in assay [3] (10 mg/kg po) is recorded as 37 ± 20 mg; in assay [3] (20 mg/kg po), 32 ± 15 mg; in assay [3] (40 mg/kg po), 16 ± 12 mg.

(Values after patent US9902709B2, “Polysubstituted pyridine compound, preparation method, use and pharmaceutical composition” (PEKING UNIVERSITY FOUNDER GROUP CO., LTD., priority 2014, dated 2018).)
